Data published in patent US9433622B2, “Pyrimidine compounds useful in the treatment of diseases mediated by IKKE and/or TBK1 mechanisms” (DOMAINEX LIMITED, priority 2013, dated 2016).

Assays:
[1] = molecular target: TBK1 (Homo sapiens (Human), UniProt Q9UHD2); assay: Lanthascreen TR-FRET kinase inhibition assay, TBK1; assay type: biochemical; conditions: 20 μM ATP (apparent Km), 8 nM kinase, 2.5 h
Method: (§1) Compounds of the invention (synthesised as described below) were tested for activity against the IKKε and TBK-1 enzyme as follows:
(§2) Inhibitions studies were performed using a time-resolved fluorescence-based Lanthascreen™ assay. Phosphorylation of a fluorescein-labelled substrate peptide is measured using terbium-labeled phosphospecific antibodies.
(§3) Kinase inhibition assays (10 μL) were performed at 20° C. in 384-well plate format. […] The final reaction conditions contained 400 nM fluorescein-IkBα substrate ([…]), 20 μM ATP, 2 nM or 8 nM IKKε or TBK1 kinase respectively, and 3% DMSO in kinase assay buffer consisting of 50 mM HEPES (pH 7.5), 10 mM MgCl, 1 mM EGTA, 0.01% Brij-35.
(§4) Compound dilutions were prepared from 10 mM DMSO stocks by dilution into DMSO.
(§5) The kinase phosphorylation assay was initiated by the addition of the kinase and the reaction was allowed to proceed for 1 h or 2.5 h for IKKε and TBK-1 kinase respectively.

[2] = molecular target: IKKε (Homo sapiens (Human), UniProt Q14164); assay: Lanthascreen TR-FRET kinase inhibition assay, IKKε; assay type: biochemical; conditions: 20 μM ATP (apparent Km), 2 nM kinase, 1 h
IKKε, sequence (Q14164 whole entry): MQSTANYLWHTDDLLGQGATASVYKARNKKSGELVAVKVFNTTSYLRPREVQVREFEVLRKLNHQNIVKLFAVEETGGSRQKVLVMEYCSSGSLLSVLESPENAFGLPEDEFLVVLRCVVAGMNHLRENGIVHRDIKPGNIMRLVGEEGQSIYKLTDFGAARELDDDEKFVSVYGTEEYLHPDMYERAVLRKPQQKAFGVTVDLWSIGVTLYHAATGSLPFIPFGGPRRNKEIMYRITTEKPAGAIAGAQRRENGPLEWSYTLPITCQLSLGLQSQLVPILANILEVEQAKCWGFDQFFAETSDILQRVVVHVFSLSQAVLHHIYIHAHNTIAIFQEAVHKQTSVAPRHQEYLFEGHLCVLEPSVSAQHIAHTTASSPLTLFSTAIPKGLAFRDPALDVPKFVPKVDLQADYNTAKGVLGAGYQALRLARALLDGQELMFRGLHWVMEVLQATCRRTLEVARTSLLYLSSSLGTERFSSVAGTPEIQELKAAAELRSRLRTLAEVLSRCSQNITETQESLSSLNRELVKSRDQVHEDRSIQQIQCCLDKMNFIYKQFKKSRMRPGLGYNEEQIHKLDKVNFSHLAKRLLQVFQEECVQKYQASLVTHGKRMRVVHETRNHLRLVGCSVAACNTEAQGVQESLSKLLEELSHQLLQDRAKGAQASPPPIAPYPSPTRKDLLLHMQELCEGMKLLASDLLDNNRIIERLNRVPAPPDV
Method: as §1, §2, §3, §4, §5

TBK1, sequence (Q9UHD2 whole entry): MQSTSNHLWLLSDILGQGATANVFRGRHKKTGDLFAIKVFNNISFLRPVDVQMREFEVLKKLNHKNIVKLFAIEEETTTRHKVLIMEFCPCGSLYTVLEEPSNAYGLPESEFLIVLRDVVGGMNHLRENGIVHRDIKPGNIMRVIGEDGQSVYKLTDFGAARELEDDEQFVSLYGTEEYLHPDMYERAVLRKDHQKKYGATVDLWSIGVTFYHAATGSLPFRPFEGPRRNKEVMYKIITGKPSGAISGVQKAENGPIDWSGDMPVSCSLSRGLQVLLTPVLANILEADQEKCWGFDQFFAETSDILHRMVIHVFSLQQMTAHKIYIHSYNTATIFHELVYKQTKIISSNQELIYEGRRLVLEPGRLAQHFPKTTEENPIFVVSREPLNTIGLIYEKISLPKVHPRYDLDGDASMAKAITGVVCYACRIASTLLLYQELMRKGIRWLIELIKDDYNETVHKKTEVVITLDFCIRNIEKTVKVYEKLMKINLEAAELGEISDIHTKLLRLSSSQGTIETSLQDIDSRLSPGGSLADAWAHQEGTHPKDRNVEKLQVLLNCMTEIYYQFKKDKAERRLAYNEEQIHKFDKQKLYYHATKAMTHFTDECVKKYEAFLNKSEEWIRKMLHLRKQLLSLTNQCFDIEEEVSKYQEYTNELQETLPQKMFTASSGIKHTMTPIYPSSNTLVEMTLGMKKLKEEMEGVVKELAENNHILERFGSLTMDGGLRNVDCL

SMILES	IC50 [1]	IC50 [2]
N#Cc1cc(-c2ccnc(Nc3ccc(N4CCOCC4)nc3)n2)cnc1N1CC[C@H](O)C1 [DMX-50, 2-((S)-3-Hydroxy-pyrrolidin-1-yl)-5-[2-(6-morpholin-4-yl-pyridin-3-ylamino)-pyrimidin-4-yl]-nicotinonitrile]	< 30 nM	< 100 nM
N#Cc1cc(-c2ccnc(Nc3ccnc(NC(=O)CN4CCOCC4)c3)n2)cnc1N1CC[C@H](F)C1 [DMX-34, N-(4-{4-[5-Cyano-6-((S)-3-fluoro-pyrrolidin-1-yl)-pyridin-3-yl]-pyrimidin-2-ylamino}-pyridin-2-yl)-2-morpholin-4-yl-acetamide]	< 30 nM	< 30 nM
COCCNCc1ccc(Nc2nccc(-c3cnc(N4CC[C@H](F)C4)c(C#N)c3)n2)cn1 [DMX-77, 2-((S)-3-Fluoro-pyrrolidin-1-yl)-5-(2-{6-[(2-methoxy-ethylamino)-methyl]-pyridin-3-ylamino}-pyrimidin-4-yl)-nicotinonitrile]	< 100 nM	< 100 nM
CC(=O)Nc1ccc(Nc2nccc(-c3cnc(N[C@@H]4CCOC4)c(C#N)c3)n2)cn1 [DMX-113, N-[5-(4-{5-Cyano-6-[(R)-(tetrahydro-furan-3-yl)amino]-pyridin-3-yl}-pyrimidin-2-ylamino)-pyridin-2-yl]-acetamide]	< 1000 nM	< 1000 nM
N#Cc1cc(-c2ccnc(Nc3ccc(CN4CCOCC4)nc3)n2)cnc1NC1CC1 [DMX-122, 2-Cyclopropylamino-5-[2-(6-morpholin-4-ylmethyl-pyridin-3-ylamino)-pyrimidin-4-yl]-nicotinonitrile]	< 100 nM	< 1000 nM
COCCNc1cc(Nc2nccc(-c3cnc(N4CC[C@H](F)C4)c(C#N)c3)n2)ccn1 [DMX-72, 2-((S)-3-Fluoro-pyrrolidin-1-yl)-5-{2-[2-(2-methoxy-ethylamino)-pyridin-4-ylamino]-pyrimidin-4-yl}-nicotinonitrile]	< 15 nM	< 30 nM
N#Cc1nc(-c2ccnc(Nc3ccc(NC(=O)CN4CCOCC4)nc3)n2)ccc1N1CCC2(COC2)C1 [DMX-167, N-(5-{4-[6-Cyano-5-(2-oxa-6-aza-spiro[3.4]oct-6-yl)-pyridin-2-yl]-pyrimidin-2-ylamino}-pyridin-2-yl)-2-morpholin-4-yl-acetamide]	< 100 nM	< 30 nM
N#Cc1cc(-c2ccnc(Nc3cncc(NC(=O)CN4CCOCC4)c3)n2)cnc1N1CC[C@H](F)C1 [DMX-108, N-(5-{4-[5-Cyano-6-((S)-3-fluoro-pyrrolidin-1-yl)-pyridin-3-yl]-pyrimidin-2-ylamino}-pyridin-3-yl)-2-morpholin-4-yl-acetamide]	< 30 nM	< 100 nM
COCCN(C)CC(=O)Nc1ccc(Nc2nccc(-c3cnc(N4CC[C@H](F)C4)c(C#N)c3)n2)cn1 [DMX-21, N-(5-{4-[5-Cyano-6-((S)-3-fluoro-pyrrolidin-1-yl)-pyridin-3-yl]-pyrimidin-2-ylamino}-pyridin-2-yl)-2-[(2-methoxy-ethyl)-methyl-amino]-acetamide]	< 30 nM	< 30 nM
N#Cc1cc(-c2ccnc(Nc3ccc(C(N)=O)cc3)n2)cnc1N1CCCC1 [DMX-37, 4-[4-(5-Cyano-6-pyrrolidin-1-yl-pyridin-3-yl)-pyrimidin-2-ylamino]-benzamide]	< 15 nM	< 15 nM
N#Cc1cc(-c2ccnc(Nc3ccnc(N4CCOCC4)c3)n2)cnc1N1CC[C@H](F)C1 [DMX-61, 2-((S)-3-Fluoro-pyrrolidin-1-yl)-5-[2-(2-morpholin-4-yl-pyridin-4-ylamino)-pyrimidin-4-yl]-nicotinonitrile]	< 15 nM	< 15 nM
N#Cc1cc(-c2ccnc(Nc3ccc(NC(=O)[C@@H]4CCCN4)nc3)n2)cnc1N1CC[C@H](F)C1 [DMX-65, (S)-Pyrrolidine-2-carboxylic acid (5-{4-[5-cyano-6-((S)-3-fluoro-pyrrolidin-1-yl)-pyridin-3-yl]-pyrimidin-2-ylamino}-pyridin-2-yl)-amide]	< 100 nM	< 30 nM
CC(C)(O)CNc1ccc(Nc2nccc(-c3cnc(N4CC[C@H](F)C4)c(C#N)c3)n2)cn1 [DMX-22, 2-((S)-3-Fluoro-pyrrolidin-1-yl)-5-{2-[6-(2-hydroxy-2-methyl-propylamino)-pyridin-3-ylamino]-pyrimidin-4-yl}-nicotinonitrile]	< 30 nM	< 15 nM
N#Cc1cc(-c2ccnc(Nc3ccc(CN4CCNC(=O)C4)nc3)n2)cnc1N1CC[C@H](F)C1 [DMX-102, 2-((S)-3-Fluoro-pyrrolidin-1-yl)-5-{2-[6-(3-oxo-piperazin-1-ylmethyl)-pyridin-3-ylamino]-pyrimidin-4-yl}-nicotinonitrile]	< 15 nM	< 15 nM
N#Cc1nc(-c2nc(Nc3ccc(N4CCOCC4)cc3)ncc2F)ccc1N1CC[C@H](F)C1 [DMX-153, 6-[5-Fluoro-2-(4-morpholin-4-yl-phenylamino)-pyrimidin-4-yl]-3-((S)-3-fluoro-pyrrolidin-1-yl)-pyridine-2-carbonitrile]	< 15 nM	< 15 nM

Next, values leading:

IC50 [1]	IC50 [2]	SMILES
< 30 nM	< 100 nM	N#Cc1cc(-c2ccnc(Nc3ccc(NC(=O)CN4CCCC4)nc3)n2)cnc1N1CC[C@H](F)C1 [DMX-66, N-(5-{4-[5-Cyano-6-((S)-3-fluoro-pyrrolidin-1-yl)-pyridin-3-yl]-pyrimidin-2-ylamino}-pyridin-2-yl)-2-pyrrolidin-1-yl-acetamide]
< 100 nM	< 30 nM	N#Cc1cc(-c2ccnc(Nc3ccc(CN4CCOCC4)nc3)n2)cnc1N1CCC(OC(F)F)C1 (centres unmarked) [DMX-161, 2-(3-Difluoromethoxy-pyrrolidin-1-yl)-5-[2-(6-morpholin-4-ylmethyl-pyridin-3-ylamino)-pyrimidin-4-yl]-nicotinonitrile]
< 30 nM	< 100 nM	N#Cc1nc(-c2ccnc(Nc3ccc(NC(=O)CN4CC[C@H](F)C4)nc3)n2)ccc1N1CC[C@H](O)C1 [DMX-146, N-(5-{4-[6-Cyano-5-((S)-3-hydroxy-pyrrolidin-1-yl)-pyridin-2-yl]-pyrimidin-2 ylamino}-pyridin-2-yl)-2-((S)-3-fluoro-pyrrolidin-1-yl)-acetamide]
< 1000 nM	< 1000 nM	CN(C(=O)CN1CCOCC1)c1ccc(Nc2nccc(-c3cnc(N4CC[C@H](O)C4)c(C#N)c3)n2)cn1 [DMX-75, N-(5-{4-[5-Cyano-6-((S)-3-hydroxy-pyrrolidin-1-yl)-pyridin-3-yl]-pyrimidin-2-ylamino}-pyridin-2-yl)-N-methyl-2-morpholin-4-yl-acetamide]
< 100 nM	< 1000 nM	CNc1ncc(-c2ccnc(Nc3ccc(NC4CCN(C)CC4)nc3)n2)cc1C#N [DMX-119, 2-Methylamino-5-{2-[6-(1-methyl-piperidin-4-ylamino)-pyridin-3-ylamino]-pyrimidin-4-yl}-nicotinonitrile]
< 100 nM	< 1000 nM	CN1CCC(NC(=O)c2cccc(Nc3nccc(-c4cnc(N5CC[C@H](O)C5)c(C#N)c4)n3)c2)CC1 [DMX-12, 3-{4-[5-Cyano-6-((S)-3-hydroxy-pyrrolidin-1-yl)-pyridin-3-yl]-pyrimidin-2-ylamino}-N-(1-methyl-piperidin-4-yl)-benzamide]
< 30 nM	< 30 nM	N#Cc1cc(-c2ccnc(Nc3cccc(C(=O)NC4CCNCC4)c3)n2)cnc1N1CC[C@H](F)C1 [DMX-11, 3-{4-[5-Cyano-6-((S)-3-fluoro-pyrrolidin-1-yl)-pyridin-3-yl]-pyrimidin-2-ylamino}-N-piperidin-4-yl-benzamide]
< 30 nM	< 30 nM	Cc1nccn1Cc1ccc(Nc2nccc(-c3ccc(N4CC[C@H](F)C4)c(C#N)n3)n2)cn1 [DMX-151, 3-((S)-3-Fluoro-pyrrolidin-1-yl)-6-{2-[6-(2-methyl-imidazol-1-ylmethyl)-pyridin-3-ylamino]-pyrimidin-4-yl}-pyridine-2-carbonitrile]
< 30 nM	< 100 nM	C[C@@H]1CN(c2ccc(Nc3nccc(-c4cnc(N5CC[C@H](O)C5)c(C#N)c4)n3)cn2)CCN1 [DMX-26, 2-((S)-3-Hydroxy-pyrrolidin-1-yl)-5-{2-[6-((R)-3-methyl-piperazin-1-yl)-pyridin-3-ylamino]-pyrimidin-4-yl}-nicotinonitrile]
< 100 nM	< 30 nM	CC1(O)CN(Cc2ccc(Nc3nccc(-c4cnc(N5CC[C@H](F)C5)c(C#N)c4)n3)cn2)C1 [DMX-110, 2-((S)-3-Fluoro-pyrrolidin-1-yl)-5-{2-[6-(3-hydroxy-3-methyl-azetidin-1-ylmethyl)-pyridin-3-ylamino]-pyrimidin-4-yl}-nicotinonitrile]
< 100 nM	< 1000 nM	COCCNc1cc(Nc2ncc(F)c(-c3cnc(N4CCCOCC4)c(C#N)c3)n2)ccn1 [DMX-95, 5-{5-Fluoro-2-[2-(2-methoxy-ethylamino)-pyridin-4-ylamino]-pyrimidin-4-yl}-2-[1,4]oxazepan-4-yl-nicotinonitrile]
< 15 nM	< 30 nM	N#Cc1cc(-c2ccnc(Nc3ccnc(NC(=O)CN4CCOCC4)c3)n2)cnc1N1CC[C@@H](F)C1 [DMX-111, N-(4-{4-[5-Cyano-6-((R)-3-fluoro-pyrrolidin-1-yl)-pyridin-3-yl]-pyrimidin-2-ylamino}-pyridin-2-yl)-2-morpholin-4-yl-acetamide]
< 1000 nM	< 1000 nM	CN1CCC(NC(=O)c2cccc(Nc3nccc(-c4cnc(N[C@@H]5CCOC5)c(C#N)c4)n3)c2)CC1 [DMX-115, 3-(4-{5-Cyano-6-[(R)-(tetrahydro-furan-3-yl)amino]-pyridin-3-yl}-pyrimidin-2-ylamino)-N-(1-methyl-piperidin-4-yl)-benzamide]
